How the values were obtained:
ERK2 (p42) = ERK2 (p42) phosphorylation in hippocampal slices (immunoblotting, densitometry); assay type: cell-based, rat; settings: for p42 phosphoprotein signal normalized to total protein: 1 μM
Protocol: Western blots panels A and B) of hippocampal slices treated with (A) 1 μM fisetin or (B) pretreated for 30 minutes with either 50 μM PD98059 (PD) or 10 μM U0126 (U) before the addition of 1 μM fisetin for 5 minutes, which blots were probed with the indicated antibodies.
Hippocampal slices in artificial cerebral spinal fluid (ACSF) were treated with either 1 μM fisetin for 5-20 minutes or pretreated for 30 minutes with either 50 μM PD98059 (PD) or 10 μM U0126 (J) before the addition of 1 μM fisetin for 5 minutes. Equal amounts of protein were analyzed by SDS-PAGE and immunoblotting with antibodies to phospho-ERK and phospho-CRFB along with antibodies to the unphosphorylated forms of the proteins. The average phosphoprotein signal from the blots was quantified by densitometry and normalized to total protein was plotted±S.D.

CREB = CREB activation in primary cortical neuron cultures (immunoblotting); assay type: cell-based, rat; settings: 10 μM, 30 minutes to 6 hours
Protocol: The average phosphoprotein signal from the blots was quantified by densitometry and normalized to total protein,
Five (5) day old cortical cultures were next pretreated with 50 μM of the MEK inhibitor, PD98059, before the addition of 10 μM fisetin for 4 hours.
Primary cultures of rat cortical neurons were prepared as previously described by Li et al. (Neuron, 19:453-63, 1997, herein incorporated by reference as to the method). Analysis of ERK and CREB phosphorylation was performed using SDS-polyacrylamide gel electrophoresis and immunoblotting as previously described by Sagara et al. (J. Neurochem., 90:1144-1155, 2004) using equal amounts of protein from 5 day old cortical cultures. Blots were scanned and quantified using NIH Image. Results were analyzed using an unpaired Student's t-test.

Question: For O=c1c(O)c(-c2ccc(O)c(O)c2)oc2cc(O)ccc12 [fisetin, 3,3′,4′,7-tetrahydroxyflavone], which “p42 phosphoprotein signal normalized to total protein” value (shortened to “p42 phosphoprotein signal normalized”) (ERK2 (p42); 5 min) is on record?
Answer: 1.68±0.06

Question: And the “p42 phosphoprotein signal normalized” value (ERK2 (p42); 10 min)?
Answer: 1.31±0.05

Question: And the “p42 phosphoprotein signal normalized” value (ERK2 (p42); 20 min)?
Answer: 1.42±0.03

Question: What about the “increase in ERK2 phosphorylation” value (ERK2 (p42); hippocampal slices, 1 μM fisetin) of the same molecule?
Answer: 2 fold

Question: And the CREB activation (CREB)?
Answer: enhanced CREB activation

— US7897637B2, “Methods of using flavonoids to enhance memory” (The Salk Institute for Biological Studies, priority 2006, dated 2011)
